This is an account of results in patent publication US11466007B2, “Substituted lactams showing serotonin 5-HT receptor activity” (Sumitomo Pharma Co., Ltd., priority 2018, dated 2022).

Series [1] is described as follows: Test 4: metabolic stability test in human hepatic microsome. To be noted: 0.1 mg/mL microsome, 0.1 μmol/L compound, NADPH, 37° C., 30 minutes. In kind it is in vitro ADME. An outline of the steps: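 Test compound at 0.1 μmol/L incubated 30 min at 37° C with human liver microsomes (0.1 mg/mL) and NADPH (3.2 mmol/L) in 25 mmol/L phosphate buffer, pH 7.4. Residual compound quantified by LC-MS; clearance (mL/min/mg protein) = −LN(residual ratio)/30/0.1.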

Series [2] in a line: Test 10: intracerebral transferability of rats (Kp,uu,brain). In kind it is in vivo, SD or WKY rats. As to conditions: rat, brain and plasma, unbound drug concentration ratio brain/plasma, s.c. or oral, 0.5, 1 or 2 hours. Here is the method:
Test 10: Evaluation of Intracerebral Transferability (Test for Intracerebral Transferability of Rats)
In this test, intracerebral transferability of the present compounds was evaluated by the following method. The present compounds were subcutaneously administered as a solution in saline, or orally administered as a suspension in methyl cellulose to 7-week-old SD or WKY rats. Plasma and brain were collected on 0.5 hours, 1 hour, or 2 hours after the administration to measure the drug concentrations in plasma and brain by LC-MS.
Binding rates of the present compound to plasma and brain protein were measured by equilibrium dialysis method.
Kp,uu,brain (unbound drug concentration ratio between brain/plasma) can be calculated by applying the compound concentrations in plasma and brain and the binding rates to plasma and brain protein obtained from the above test into the following formula. Kp,uu,brain=(Compound concentration in brain×(100−Binding rate to brain protein (%))/100)/(Compound concentration in plasma×(100−Binding rate to plasma protein (%))/100)

The next series has as its target P-gp (MDR1) (Homo sapiens (Human), UniProt P08183). Briefly: Test 9: P-gp substrate property (NFR, MDCKII and MDR1-MDCKII cells). In kind it is in vitro ADME. As to conditions: ratio of Papp B-A/Papp A-B in MDR1-MDCKII cells to that in MDCKII cells. Here is the method:
Evaluation test for binding was carried out as follows with the CHO cell membrane fraction in which human target receptor was expressed. […] Each mixture was incubated at room temperature, added quickly on a glassfiber filter plate (Multiscreen FB, Millipore, Inc.), and vacuum-filtered. Radioactivity remaining on the filter was measured with a liquid scintillation counter (PerkinElmer, Inc.). Binding inhibition rate was calculated from the following formula.
NFR (Net Flux Ratio), which is an index of P-gp substrate property, can be calculated as follows. MDCKII (Madin-Darby canine kidney strain II) cells and MDR1-MDCKII cells in which MDR1 (multidrug resistance protein 1) was overexpressed were used to measure an apparent permeability coefficient (Papp A-B) from lumen (A) to basement membrane (B) and an apparent permeability coefficient (Papp B-A) from basement membrane (B) to lumen (A) of both MDCKII cells and MDR1-MDCKII cells. NFR (Net Flux Ratio) was calculated from the ratio between Ratio (Papp B-A/Papp A-B) of an apparent permeability coefficient of MDR1-MDCKII cells and Ratio of an apparent permeability coefficient of MDCKII cells.

In series [3] the target is T1, human 5-HT1A receptor (Homo sapiens (Human), UniProt P08908). Briefly: Test 2: agonist activity for human 5-HT1A receptor ([35S]GTPγS binding). It is filed as biochemical. As to conditions: for Emax at 10 µM: agonist activity in the presence of 10 μM compound, relative to 100 μmol/L 5-HT. Here is the method:
Test 2: Evaluation of Agonist Activity for Human 5-HT1A Receptor
CHO cell membrane fraction in which human 5-HT1A receptor was expressed as used in Test 1 was purchased. To a buffer containing guanosine diphosphate were added a test compound dissolved in DMSO, each receptor membrane sample diluted with buffer, and [^35S] Guanosine 5′-O-[gamma-thio]triphosphate (GTPγS). The mixture was incubated at room temperature for 60 minutes. Then, the mixture was added quickly on a glassfiber filter plate (Multiscreen FB, Millipore, Inc.), and vacuum-filtered. Radioactivity remaining on the […] was measured with a liquid scintillation counter. Agonist activity was calculated from the following formula.
A general note: Binding of GTPγS marks nucleotide exchange on a G protein.

For series [4], the target named is T1, human 5-HT1A receptor. Briefly: Test 1: binding activity for human 5-HT1A receptor ([3H]8-OH-DPAT). As to conditions: CHO cell membrane fraction. Here is the method: (§1) Test 1: Evaluation of Binding Activity for Human 5-HT1A Receptor, Human 5-HT2A Receptor, and Human D2 Receptor
(§2) Binding affinity of the present compound for human 5-HT1A receptor, human 5-HT2A receptor, and human D2 receptor was measured by the following procedures.
(§3) Each mixture was incubated at room temperature for 60 minutes. Then, the mixture was added quickly on a glassfiber filter plate (Multiscreen FB, Millipore, Inc.) coated with 0.3% aqueous polyethylenimine, and vacuum-filtered. Radioactivity remaining on the filter was measured with a liquid scintillation counter (PerkinElmer, Inc.). Binding inhibition rate was calculated from the following formula.
IC50 value was calculated by Hill analysis (Physiology, 1910, 40, 190-200). Ki of each compound was calculated from the following formula. Binding inhibition constant (Ki)=IC50/(1+S/Kd) wherein S is concentration of ligand; Kd is a binding dissociation constant of ligand to membrane, which is calculated from a saturated binding experiment conducted with the same cell membrane. A small Ki value means strong binding ability to a receptor.

The target of series [5] is T2, human 5-HT2A receptor (Homo sapiens (Human), UniProt P28223). Briefly: Test 1: binding activity for human 5-HT2A receptor ([3H]Ketanserin). As to conditions: CHO cell membrane fraction. Here is the method: as §1, §2, §3
T2 sequence (P28223 whole entry): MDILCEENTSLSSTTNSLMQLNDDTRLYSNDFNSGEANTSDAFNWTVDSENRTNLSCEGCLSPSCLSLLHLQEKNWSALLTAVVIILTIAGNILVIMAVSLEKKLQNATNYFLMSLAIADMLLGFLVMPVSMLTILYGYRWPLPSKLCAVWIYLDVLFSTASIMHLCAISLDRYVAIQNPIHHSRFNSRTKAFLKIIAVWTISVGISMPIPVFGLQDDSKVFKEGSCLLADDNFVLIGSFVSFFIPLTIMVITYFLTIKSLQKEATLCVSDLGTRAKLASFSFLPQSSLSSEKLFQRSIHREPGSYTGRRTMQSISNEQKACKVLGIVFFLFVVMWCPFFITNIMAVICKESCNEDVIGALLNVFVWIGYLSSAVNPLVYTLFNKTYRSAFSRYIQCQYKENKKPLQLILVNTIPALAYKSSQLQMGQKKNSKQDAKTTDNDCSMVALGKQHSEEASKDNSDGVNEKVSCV
(§4) Ki of each compound was calculated from the following formula. Binding inhibition constant (Ki)=IC50/(1+S/Kd) wherein S is concentration of ligand; Kd is a binding dissociation constant of ligand to membrane, which is calculated from a saturated binding experiment conducted with the same cell membrane. A small Ki value means strong binding ability to a receptor.

The target in a further series is human D2 receptor (Homo sapiens (Human), UniProt P14416). Briefly: Test 1: binding activity for human D2 receptor ([3H]Spiperone). As to conditions: for Ki: CHO cell membrane fraction, [3H]Spiperone; for D2 Ki/5-HT1A Ki: ratio of D2 Ki to 5-HT1A Ki; for D2 Ki/5-HT2A Ki: ratio of D2 Ki to 5-HT2A Ki. The protocol: as §1, §2, §3, §4
Chain of human D2 receptor (P14416 whole entry): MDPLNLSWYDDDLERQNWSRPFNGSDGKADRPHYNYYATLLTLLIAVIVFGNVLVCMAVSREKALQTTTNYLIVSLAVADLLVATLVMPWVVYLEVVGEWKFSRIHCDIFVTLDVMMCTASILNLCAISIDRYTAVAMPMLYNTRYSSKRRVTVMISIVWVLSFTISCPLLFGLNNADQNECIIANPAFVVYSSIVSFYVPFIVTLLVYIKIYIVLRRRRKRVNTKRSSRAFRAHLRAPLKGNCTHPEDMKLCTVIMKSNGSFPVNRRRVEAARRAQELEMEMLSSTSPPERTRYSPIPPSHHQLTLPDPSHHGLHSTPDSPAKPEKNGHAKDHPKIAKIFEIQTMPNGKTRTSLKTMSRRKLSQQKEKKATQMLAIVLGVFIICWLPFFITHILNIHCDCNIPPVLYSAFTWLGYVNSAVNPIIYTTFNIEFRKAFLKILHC
Series [6] concerns the target T2, human 5-HT2A receptor. The series is described as follows: Test 3: antagonist activity for human 5-HT2A receptor (aequorin luminescence, CHO-K1 cells). In kind it is cell-based. Here is the method:
Test 3: Evaluation of Antagonist Activity for Human 5-HT2A Receptor
Aequorin, Gα16 protein, and each receptor were transiently expressed in CHO-K1 cells (Chinese hamster ovary). […] Each compound dissolved in DMSO was added thereto, and changes in luminescence were measured by FDSS/μCELL functional drug screening system (Hamamatsu Photonics K.K.). Antagonist activity was calculated from the following formula.
Antagonist activity (%)=100×{(Luminescence of well in the presence of 1 nmol/L 5-HT−Luminescence of well containing solvent)−(Luminescence of well in the presence of test compound and 1 nmol/L 5-HT−Luminescence of well containing solvent)}/(Luminescence of well in the presence of 1 nmol/L 5-HT−Luminescence of well containing solvent)

Another series has as its target hERG channel (Homo sapiens (Human), UniProt Q12809). The series is described as follows: Test 6-1: inhibitory activity for hERG channel (auto patch clamp, Qpatch). In kind it is cell-based. Here is the method:
Test 6-1: Evaluation of Inhibitory Activity for hERG Channel
Inhibitory activity of the present compound for hERG channel was measured by whole cell patch clamp method with an auto patch clamp system using CHO cells in which hERG channel involved in human rapidly activating delayed rectifier potassium current (IKr) was forcibly expressed.
hERG-CHO cells purchased from ChanTest Cop. were cultured in a CO2 incubator at 37° C., and dissociated from a flask with trypsin shortly before the measurement of hERG current, to prepare a cell suspension.
Extracellular and intracellular fluid used in the measurement were prepared as follows.
Extracellular fluid: 2 mmol/L CaCl2, 1 mmol/L MgCl2, 10 mmol/L HEPES, 4 mmol/L KCl, 145 mmol/L NaCl, 10 mmol/L Glucose
Intracellular fluid: 5.4 mmol/L CaCl2, 1.8 mmol/L MgCl2, 10 mmol/L HEPES, 31 mmol/L KOH, 10 mmol/L EGTA, 120 mmol/L KCl, 4 mmol/L Na2-ATP
Test compound solution: Test compound was dissolved in DMSO to reach the concentration of 2 mmol/L or 20 mmol/L, in order to prepare a test compound solution. […] (Measurement of Current Value and Data Analysis)
The cell suspension, the extracellular fluid, the intracellular fluid, and the measurement plate were set in the auto patch clamp system, and hERG current was measured by whole cell patch clamp method. […] Each pulse interval was 15 seconds. The data analysis was carried out with Qpatch Assay Software (Biolin Scientific). The test was carried out by applying incrementally 4 concentrations of each test compound, and the average of the maximum peak tail currents which were obtained from the last 3 stimulations in each concentration was determined as the evaluated data. Based on the current inhibition rate for a pre-applied current at each concentration of each test compound, IC50 value was calculated by Hill equation with the software.
Background: hERG is a cardiac potassium channel; its block is linked to QT prolongation.

T1 sequence (P08908 whole entry): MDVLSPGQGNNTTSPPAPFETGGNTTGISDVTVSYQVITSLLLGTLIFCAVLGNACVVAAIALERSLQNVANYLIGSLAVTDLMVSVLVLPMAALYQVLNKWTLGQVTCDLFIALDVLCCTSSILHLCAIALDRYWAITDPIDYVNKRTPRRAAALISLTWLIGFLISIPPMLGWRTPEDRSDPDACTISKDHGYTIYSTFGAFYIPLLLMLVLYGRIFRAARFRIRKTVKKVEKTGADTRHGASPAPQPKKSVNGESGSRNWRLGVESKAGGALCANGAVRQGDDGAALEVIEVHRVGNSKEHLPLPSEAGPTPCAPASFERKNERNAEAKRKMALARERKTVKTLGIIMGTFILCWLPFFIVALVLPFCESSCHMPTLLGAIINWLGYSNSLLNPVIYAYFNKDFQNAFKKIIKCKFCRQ
Chain of hERG channel (Q12809 whole entry): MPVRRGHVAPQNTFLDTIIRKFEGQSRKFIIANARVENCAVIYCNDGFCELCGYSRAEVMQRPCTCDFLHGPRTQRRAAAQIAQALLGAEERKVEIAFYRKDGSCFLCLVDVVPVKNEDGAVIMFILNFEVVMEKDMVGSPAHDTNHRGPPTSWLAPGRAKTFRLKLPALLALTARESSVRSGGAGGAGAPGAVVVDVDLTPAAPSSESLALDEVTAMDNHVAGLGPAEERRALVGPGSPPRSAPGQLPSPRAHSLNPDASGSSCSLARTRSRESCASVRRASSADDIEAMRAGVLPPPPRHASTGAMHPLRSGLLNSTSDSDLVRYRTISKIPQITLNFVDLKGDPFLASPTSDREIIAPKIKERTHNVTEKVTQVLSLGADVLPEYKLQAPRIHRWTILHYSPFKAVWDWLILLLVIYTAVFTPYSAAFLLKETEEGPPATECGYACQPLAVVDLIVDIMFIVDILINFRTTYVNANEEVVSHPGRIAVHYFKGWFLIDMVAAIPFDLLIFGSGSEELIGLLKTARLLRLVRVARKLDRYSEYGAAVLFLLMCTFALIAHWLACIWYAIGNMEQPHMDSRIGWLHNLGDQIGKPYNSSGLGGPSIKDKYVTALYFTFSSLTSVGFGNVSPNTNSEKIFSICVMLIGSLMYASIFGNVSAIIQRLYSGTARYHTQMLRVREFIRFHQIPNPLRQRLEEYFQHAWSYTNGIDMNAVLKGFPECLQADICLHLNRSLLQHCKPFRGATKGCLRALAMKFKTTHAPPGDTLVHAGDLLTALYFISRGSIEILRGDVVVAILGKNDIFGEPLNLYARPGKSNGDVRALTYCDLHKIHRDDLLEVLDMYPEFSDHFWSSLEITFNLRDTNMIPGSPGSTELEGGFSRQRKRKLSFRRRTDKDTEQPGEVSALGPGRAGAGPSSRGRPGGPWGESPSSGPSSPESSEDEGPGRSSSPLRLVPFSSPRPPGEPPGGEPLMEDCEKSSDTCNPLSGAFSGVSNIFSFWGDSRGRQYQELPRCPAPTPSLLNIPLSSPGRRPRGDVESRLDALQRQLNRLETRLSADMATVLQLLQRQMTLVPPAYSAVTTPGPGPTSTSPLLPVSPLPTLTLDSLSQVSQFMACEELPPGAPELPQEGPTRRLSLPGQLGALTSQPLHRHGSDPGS
Chain of P-gp (MDR1) (P08183 whole entry, species assumed): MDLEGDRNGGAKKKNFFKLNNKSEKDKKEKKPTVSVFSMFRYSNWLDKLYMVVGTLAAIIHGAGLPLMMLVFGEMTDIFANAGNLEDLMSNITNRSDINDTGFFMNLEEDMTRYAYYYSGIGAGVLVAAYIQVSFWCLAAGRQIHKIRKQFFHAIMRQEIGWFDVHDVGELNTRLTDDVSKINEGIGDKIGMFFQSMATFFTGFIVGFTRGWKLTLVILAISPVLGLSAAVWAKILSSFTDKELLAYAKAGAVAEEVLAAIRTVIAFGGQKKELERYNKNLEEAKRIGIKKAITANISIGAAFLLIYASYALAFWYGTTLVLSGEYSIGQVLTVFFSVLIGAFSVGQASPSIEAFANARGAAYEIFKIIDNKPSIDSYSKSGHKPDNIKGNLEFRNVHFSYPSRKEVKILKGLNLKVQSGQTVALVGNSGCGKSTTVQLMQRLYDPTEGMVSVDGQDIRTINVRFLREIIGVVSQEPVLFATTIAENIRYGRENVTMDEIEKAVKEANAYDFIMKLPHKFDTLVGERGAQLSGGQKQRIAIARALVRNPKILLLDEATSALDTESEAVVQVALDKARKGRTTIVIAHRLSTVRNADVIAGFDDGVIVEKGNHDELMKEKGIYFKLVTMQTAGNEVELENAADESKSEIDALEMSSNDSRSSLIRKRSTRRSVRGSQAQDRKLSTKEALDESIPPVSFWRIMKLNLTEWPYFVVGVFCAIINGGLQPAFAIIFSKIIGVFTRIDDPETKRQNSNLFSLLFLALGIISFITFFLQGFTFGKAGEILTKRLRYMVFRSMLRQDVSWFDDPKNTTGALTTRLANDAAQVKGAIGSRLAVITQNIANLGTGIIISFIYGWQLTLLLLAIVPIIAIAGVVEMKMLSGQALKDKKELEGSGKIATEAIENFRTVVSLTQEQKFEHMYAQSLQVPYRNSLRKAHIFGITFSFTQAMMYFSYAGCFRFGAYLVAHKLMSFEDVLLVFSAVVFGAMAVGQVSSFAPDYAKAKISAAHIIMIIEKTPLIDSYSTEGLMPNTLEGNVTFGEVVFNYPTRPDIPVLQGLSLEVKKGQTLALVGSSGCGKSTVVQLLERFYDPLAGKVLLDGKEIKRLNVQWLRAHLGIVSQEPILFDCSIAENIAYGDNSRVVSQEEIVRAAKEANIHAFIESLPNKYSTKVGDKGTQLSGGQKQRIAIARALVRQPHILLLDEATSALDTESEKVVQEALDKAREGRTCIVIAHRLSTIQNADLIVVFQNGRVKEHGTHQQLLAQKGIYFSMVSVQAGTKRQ

On to `Cc1nc2c(o1)C(=O)N(CCN1CCC(c3noc4ccccc34)CC1)CC2` [Example 35, 5-{2-[4-(1,2-Benzoisoxazol-3-yl)piperidin-1-yl]ethyl}-2-methyl-6,7-dihydro[1,3]oxazolo[5,4-c]pyridin-4(5H)-one], for which the “Metabolic stability in human hepatic microsome” value (from here on “Metabolic stability”) in series [1] was less than 0.01 mL/min/mg protein. The Kp uu at 2 h in [2] was determined as 1.44.

In the case of `Cn1cc2c(n1)CCN(CCN1CCN(c3nsc4ccccc34)CC1)C2=O` [Example 36, 5-{2-[4-(1,2-Benzoisothiazol-3-yl)piperazin-1-yl]ethyl}-2-methyl-2,5,6,7-tetrahydro-4H-pyrazolo[4,3-c]pyridin-4-one], the “Metabolic stability” value in [1] was 0.085 mL/min/mg protein. For the same compound, the “NFR (Net Flux Ratio)” value at P-gp (MDR1) is given as 1.8. The Kp uu at 2 h in series [2] was 0.08.

With `Cn1ncc2c1CCCN(CCN1CCC(c3noc4ccccc34)CC1)C2=O` [Example 43], the “Metabolic stability” value in series [1] is less than 0.01 mL/min/mg protein. The “NFR (Net Flux Ratio)” value at P-gp (MDR1) is reported as 2.2. Further, the Kp uu at 2 h in [2] came out at 0.18.

The Emax is the maximal effect, on the per cent scale that the assay sets. By Ki is commonly meant a dissociation constant, usually derived from enzyme kinetics or from competition with a known ligand. Lower therefore signals a stronger hold on the target. Turning to `Cc1ccc2c(C3CCN(CCn4ccc5cccnc5c4=O)CC3)noc2c1` [Example 118], the Emax at 10 µM on human 5-HT1A receptor [3] came out at 5%. Besides, the inhibition constant (Ki) at human 5-HT1A receptor [4] amounted to 73.1 nM. In addition, at human 5-HT2A receptor [5], the affinity, expressed as Ki, was 10 nM. In addition, at human D2 receptor, the Ki stood at 276 nM, the “D2 Ki/5-HT1A Ki” value worked out at 3.8 and the “D2 Ki/5-HT2A Ki” value was found to be 27.6.

For `O=C1c2ncccc2CCN1CCN1CCC(c2noc3cc(F)c(F)cc23)CC1` [Example 148], at human 5-HT2A receptor [6] (at 10 μM), the 5-HT2A antagonist activity was found to be 45% at 10 μM.

As usually defined, the IC50 is the concentration needed to halve the response being measured. Take `COc1ncc2c(n1)CCN(CCN1CCN(c3noc4ccccc34)CC1)C2=O` [Example 179]: in series [1], the “Metabolic stability” value is on record as less than 0.05 mL/min/mg protein. For the same compound, on human 5-HT1A receptor [4], the inhibition constant (Ki) came to 283 nM. The same compound registered a Ki on human 5-HT2A receptor [5] of 22.9 nM. Besides, the half-inhibitory concentration (IC50) on hERG channel (hERG-CHO cells, whole cell patch clamp, Qpatch, read-out: hERG inhibition IC50) was greater than 10000 nM. Moreover, the “hERG inhibition IC50 (nmol/L)/5-HT1A Ki (nmol/L)” value on hERG channel (ratio of hERG IC50 to 5-HT1A Ki) was greater than 35. Moreover, the “hERG inhibition IC50 (nmol/L)/5-HT2A Ki (nmol/L)” value at hERG channel (ratio of hERG IC50 to 5-HT2A Ki) is reported as greater than 438. Moreover, on human D2 receptor, the inhibitory constant (Ki) was greater than 10000 nM, the “D2 Ki/5-HT1A Ki” value is reported as greater than 35.3 and the “D2 Ki/5-HT2A Ki” value is listed as greater than 437.6.

For orientation: EC50 means the midpoint of the concentration-response curve. As to `COc1ccc2c(n1)C(=O)N(CCN1CCC(c3noc4ccccc34)CC1)CC2` [Example 187], the “Metabolic stability” value in series [1] was less than 0.05 mL/min/mg protein. Moreover, at human 5-HT1A receptor [3] ([35S]GTPγS binding, CHO cell membrane fraction expressing human 5-HT1A receptor), the EC50 worked out at 38.2 nM. In addition, on human 5-HT1A receptor [3], the Emax at 10 µM came out at 55%. Also, on human 5-HT2A receptor [6] (CHO-K1 cells, aequorin/Gα16, 1 nmol/L 5-HT), half-maximal inhibition (IC50) required 89.7 nM. The inhibition constant Ki at human 5-HT1A receptor [4] was found to be 1.59 nM; at human 5-HT2A receptor [5], 14.5 nM.
